This is an account of results in PubChem BioAssay (NCI).

Values joined by “and” are separate entries in the source; they are usually repeats but may differ in a detail not shown here. Identical values can stand only once.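 Growth conditions: 96-well plates. Treatment: test compound, 48 hours, 5 concentrations. Analysis: linear interpolation between bracketing concentrations; unreached endpoints set to highest concentration. GI50 = concentration required for 50% inhibition of growth. TGI denotes the concentration required for complete inhibition of growth.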

Test systems include A549 NSCLC; BT-549 breast; EKVX NSCLC; HL-60(TB) leukemia; HOP-62 NSCLC; HS 578T breast; MDA-MB-435; OVCAR-5 ovarian; RPMI-8226 leukemia; SK-MEL-28 melanoma.
Common to all, as to assay: NCI anticancer screen, dose series, 48 h

Turning to `CCCCCCCCCCCCn1c(C)nc2ccccc21`, the GI50 in the assay with A549 NSCLC is 0.4 µM; in the assay with BT-549 breast, 12 µM; with EKVX NSCLC, 1.72 µM; in the assay on HL-60(TB) leukemia, 2.54 µM; with HOP-62 NSCLC it was 12.4 µM; in the assay with HS 578T breast, 27.7 µM. Besides, the GI50 in the assay with MDA-MB-435 was 12.8 µM; with OVCAR-5 ovarian, 4.78 µM; with RPMI-8226 leukemia it was 0.614 µM; in the assay on SK-MEL-28 melanoma, 19.4 µM. For the same molecule, the TGI in the assay with A549 NSCLC came to 20.7 µM; with BT-549 breast, 28.7 µM; in the assay with EKVX NSCLC it was 19.3 µM; with HL-60(TB) leukemia, 18.5 µM; in the assay with HOP-62 NSCLC, 25.5 µM; with HS 578T breast, 48.3 µM. Moreover, the TGI in the assay with MDA-MB-435 was determined as 28.8 µM; in the assay with OVCAR-5 ovarian, 17.6 µM; in the assay with RPMI-8226 leukemia, 10.3 µM; with SK-MEL-28 melanoma, 34.5 µM.
Regarding `COc1ccc2c(c1)CCC1C2CC[C@@]2(C)C1CC[C@@]2(O)CNC(=O)/C=C/c1ccc(O)c(OC)c1` (some centres not stated), the GI50 is 22.3 µM in the assay with A549 NSCLC; 16.2 µM with BT-549 breast; 10.7 µM in the assay on EKVX NSCLC; 8.46 µM in the assay with HL-60(TB) leukemia; 31.8 µM in the assay on HOP-62 NSCLC; 75.3 µM with HS 578T breast. Besides, the GI50 in the assay with MDA-MB-435 is 4.95 µM; with OVCAR-5 ovarian, 45.5 µM; in the assay on RPMI-8226 leukemia, 6.47 µM; in the assay with SK-MEL-28 melanoma, 15.2 µM. Further, the TGI with A549 NSCLC is greater than 100 µM; in the assay on BT-549 breast it was 75.7 µM; with EKVX NSCLC, 83.7 µM; in the assay on HL-60(TB) leukemia, greater than 100 µM; in the assay with HOP-62 NSCLC it was greater than 100 µM; with HS 578T breast it was greater than 100 µM. In addition, the TGI in the assay with MDA-MB-435 is greater than 100 µM; in the assay on OVCAR-5 ovarian, greater than 100 µM; in the assay with RPMI-8226 leukemia, 53.9 µM; in the assay on SK-MEL-28 melanoma, 84.4 µM.
In the case of `COc1ccc(-c2oc(=O)ccc2C#Cc2cc(OC)c(OC)c(OC)c2)cc1O`, the GI50 in the assay with A549 NSCLC was 39.5 µM; in the assay with BT-549 breast it was 27 µM; in the assay on EKVX NSCLC it was 66.7 µM; in the assay with HL-60(TB) leukemia, 8.96 µM; in the assay on HOP-62 NSCLC, 18.5 µM; in the assay with HS 578T breast, 30.2 µM. For the same molecule, the GI50 is 11.5 µM in the assay on MDA-MB-435, greater than 100 µM with OVCAR-5 ovarian, 10.9 µM with RPMI-8226 leukemia and 37.7 µM in the assay with SK-MEL-28 melanoma. The TGI in the assay on A549 NSCLC was greater than 100 µM; in the assay with BT-549 breast, greater than 100 µM; with EKVX NSCLC it was greater than 100 µM; in the assay on HL-60(TB) leukemia, 35.7 µM; with HOP-62 NSCLC, 87.4 µM; in the assay on HS 578T breast it was greater than 100 µM. Moreover, the TGI was 81.7 µM in the assay with MDA-MB-435, greater than 100 µM in the assay with OVCAR-5 ovarian, 35.1 µM with RPMI-8226 leukemia and greater than 100 µM with SK-MEL-28 melanoma.
For `Cc1ccc(Cl)cc1Nc1nc(C(F)(F)F)ccc1C(=O)Nc1cccc(C(F)(F)F)c1`, the GI50 with A549 NSCLC is 2.93 µM; in the assay on BT-549 breast, 3.56 µM; in the assay with EKVX NSCLC, 2.7 µM; with HL-60(TB) leukemia, 3.61 µM; in the assay with HOP-62 NSCLC it was 2.69 µM; in the assay on HS 578T breast, 4.66 µM. Also, the GI50 is 3.61 µM in the assay on MDA-MB-435, 2.59 µM with OVCAR-5 ovarian, 2.34 µM in the assay on RPMI-8226 leukemia and 4.55 µM with SK-MEL-28 melanoma. The TGI with A549 NSCLC stood at 11.7 µM; with BT-549 breast it was 13.3 µM; in the assay with EKVX NSCLC, 10.9 µM; in the assay on HL-60(TB) leukemia it was 10.5 µM; with HOP-62 NSCLC it was 10.3 µM; in the assay with HS 578T breast, 20 µM. Besides, the TGI with MDA-MB-435 worked out at 13.9 µM; in the assay on OVCAR-5 ovarian, 11.4 µM; in the assay on RPMI-8226 leukemia, 12.6 µM; with SK-MEL-28 melanoma, 18.3 µM.
With `O=C(/C=C/c1ccc(C(F)(F)F)cc1)c1ccc(Nc2nc(NCCO)nc(NCCO)n2)cc1`, the GI50 with A549 NSCLC was 2.91 µM; in the assay with BT-549 breast, 2.53 µM; with EKVX NSCLC it was 3.49 µM; with HL-60(TB) leukemia it was 2.97 µM; in the assay on HOP-62 NSCLC, 2.42 µM; in the assay on HS 578T breast it was 5.44 µM. Also, the GI50 in the assay on MDA-MB-435 is 3.82 µM; in the assay with OVCAR-5 ovarian it was 2.85 µM; in the assay with RPMI-8226 leukemia, 2.12 µM; in the assay with SK-MEL-28 melanoma, 3.45 µM. Further, the TGI was 10.8 µM in the assay on A549 NSCLC; 8 µM in the assay with BT-549 breast; 16.8 µM in the assay on EKVX NSCLC; 10.3 µM in the assay with HL-60(TB) leukemia; 7.99 µM in the assay on HOP-62 NSCLC; 54 µM in the assay with HS 578T breast. Besides, the TGI in the assay on MDA-MB-435 amounted to 14.2 µM; in the assay with OVCAR-5 ovarian, 14.1 µM; with RPMI-8226 leukemia, 5.23 µM; with SK-MEL-28 melanoma it was 13 µM.
As to `C(=N\Nc1nnc2c(n1)[nH]c1ccccc12)/c1cccnc1`, the TGI in the assay with A549 NSCLC, with BT-549 breast, in the assay on EKVX NSCLC, in the assay with HL-60(TB) leukemia, in the assay with HOP-62 NSCLC and in the assay with HS 578T breast was greater than 100 µM each time. The TGI with MDA-MB-435, in the assay on OVCAR-5 ovarian, with RPMI-8226 leukemia and in the assay on SK-MEL-28 melanoma was greater than 100 µM in each case.
Take `CN(C)c1ccc(/C=C2\C[C@H]3[C@@H]4CC=C5C[C@@H](N6CCCC6)CC[C@]5(C)[C@H]4CC[C@]3(C)[C@H]2O)cc1`: the GI50 in the assay with A549 NSCLC was 3.79 µM; in the assay on BT-549 breast, 17.4 µM; with EKVX NSCLC it was 3.67 µM; in the assay with HL-60(TB) leukemia it was 2.3 µM; with HOP-62 NSCLC it was 2.98 µM; in the assay with HS 578T breast, 2.83 µM. Besides, the GI50 in the assay with OVCAR-5 ovarian was 14.1 µM; in the assay on RPMI-8226 leukemia, 3.1 µM. Further, the TGI in the assay on A549 NSCLC was 4.41 µM and 15.3 µM; in the assay on BT-549 breast, 9.72 µM and 53.1 µM; in the assay with EKVX NSCLC, 7.72 µM and 26.4 µM; in the assay with HL-60(TB) leukemia, 2.31 µM and 4.86 µM; in the assay on HOP-62 NSCLC it was 7.14 µM and 12.9 µM; in the assay with HS 578T breast it was 2.5 µM and 7.93 µM. Also, the TGI is 5.37 µM in the assay on MDA-MB-435; 13 µM and 57.2 µM in the assay with OVCAR-5 ovarian; 1.84 µM in the assay on SK-MEL-28 melanoma.
